“Also recorded” adds a separate entry of the source.
Key:
[1] = system: maternal serum samples (antibodies); assay: ELISA peptide-binding of maternal sera, expanded peptide collection (Example 5); design: species or system human; conditions: for Binding / reactivity of maternal sera to peptide (in words): Example 5
Text: The gp120 and gp41 peptides used in this experiment include peptides 60 [SEQ ID NO:9], 93 [SEQ ID NO:10], 94 [SEQ ID NO:1], 95 [SEQ ID NO:11], 96 [SEQ ID NO:12], 97 [SEQ ID NO:13], 59 [SEQ ID NO:14], 106 [SEQ ID NO:15], 107 [SEQ ID NO:[…]], 1029/33 [SEQ ID NO:2], p18p [SEQ ID NO:17], B138 [SEQ ID NO:3], 466 [SEQ ID NO:4], 497 [SEQ ID NO:18], 117 [SEQ ID NO:19], F560 [SEQ ID NO:20], 35 [SEQ ID NO:5], 120 [SEQ ID NO:21], 121 [SEQ ID NO:22], 123 [SEQ ID NO:23], 36 [SEQ ID NO:24], 40 [SEQ ID NO:25], 41 [SEQ ID NO:26], 649 [SEQ ID NO:6], 53 [SEQ ID NO:7], 55 [SEQ ID NO:27], 128 [SEQ ID NO:28], 129 [SEQ ID NO:29], 132 [SEQ ID NO:30], 57 [SEQ ID NO:8], and 1103/55 [SEQ ID NO:31] from Table 2. These peptides were synthesized based on the same HIV IIIB isolate as were the peptides of Table 2. Alternative designations for these peptides are provided in brackets.
Each of the peptides was at least 85% pure, making them suitable for ELISA analyses. The average length of these peptides was 18 amino acid residues, which allows for a certain degree of local flexibility and conformational folding, thus facilitating detection of antibody species with reactivities to shaped structures.
The maternal serum samples were obtained from the Mothers/Infants Cohort Study described in Example 1. For the ELISA peptide-binding analyses performed essentially as described in Example 3, maternal serum samples were diluted to 1:50 or 1:500 with blocking buffer (1% bovine serum albumin in phosphate-buffered saline containing 0.05% Tween 20). Binding was measured using 10 μg/mL peptide per well and was considered positive if the experimental/control OD450nm ratio was ≥2. Normal (HIV seronegative) human sera were used as controls.

[2] = system: maternal HIV+ sera (antibodies); assay: RIA / ELISA binding of maternal HIV+ sera to gp120 and gp41 peptides (Example 3); design: species or system human
Procedure, shortened: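 Peptides were coated at 10 μg/ml in carbonate buffer pH 9.6 and blocked with 1% BSA. Sera at 1:50 and 1:500 were incubated overnight at 4°C and detected with ¹²⁵I anti-human IgG (RIA) or HRP/TMB at OD450 (ELISA). Specific binding was taken as peptide minus no-peptide wells, scored as a ratio to normal human serum.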

LGIWGCSGKLIC [Peptide 41-2]
Binding / reactivity of maternal sera to peptide (in words) [1]: Virtually all samples reacted; also recorded: recognized by the transmission group
Percent of both groups that bound to the peptide ([1]; transmission and non-transmission groups): 90%

LAVERYLKDQQLLGI [Peptide 121]
Binding of maternal HIV+ serum to peptide (sera/NHS ratio) ([2]; Serum No. 1, Non-Transmission Group): ++ (which value is greater than 3)
Binding of maternal HIV+ serum to peptide (sera/NHS ratio) ([2]; Serum No. 2, Non-Transmission Group): - (specific OD450 or cpm of sera sample binding to peptide divided by the specific OD450 or cpm of NHS sample binding to peptide, which value is less than 2)
Binding of maternal HIV+ serum to peptide (sera/NHS ratio) ([2]; Serum No. 3, Non-Transmission Group): - (specific OD450 or cpm of sera sample binding to peptide divided by the specific OD450 or cpm of NHS sample binding to peptide, which value is less than 2)
Binding of maternal HIV+ serum to peptide (sera/NHS ratio) ([2]; Serum No. 4, Transmission Group): - (specific OD450 or cpm of sera sample binding to peptide divided by the specific OD450 or cpm of NHS sample binding to peptide, which value is less than 2)
Binding of maternal HIV+ serum to peptide (sera/NHS ratio) ([2]; Serum No. 5, Transmission Group): - (specific OD450 or cpm of sera sample binding to peptide divided by the specific OD450 or cpm of NHS sample binding to peptide, which value is less than 2)
Binding of maternal HIV+ serum to peptide (sera/NHS ratio) ([2]; Serum No. 6, Non-Transmission Group): ++ (which value is greater than 3)
Binding of maternal HIV+ serum to peptide (sera/NHS ratio) ([2]; Serum No. 7, Non-Transmission Group): - (specific OD450 or cpm of sera sample binding to peptide divided by the specific OD450 or cpm of NHS sample binding to peptide, which value is less than 2)
Binding of maternal HIV+ serum to peptide (sera/NHS ratio) ([2]; Serum No. 8, Non-Transmission Group): - (specific OD450 or cpm of sera sample binding to peptide divided by the specific OD450 or cpm of NHS sample binding to peptide, which value is less than 2)
Binding of maternal HIV+ serum to peptide (sera/NHS ratio) ([2]; Serum No. 9, Non-Transmission Group): - (specific OD450 or cpm of sera sample binding to peptide divided by the specific OD450 or cpm of NHS sample binding to peptide, which value is less than 2)
Binding of maternal HIV+ serum to peptide (sera/NHS ratio) ([2]; Serum No. 10, Transmission Group): - (specific OD450 or cpm of sera sample binding to peptide divided by the specific OD450 or cpm of NHS sample binding to peptide, which value is less than 2)
Binding of maternal HIV+ serum to peptide (sera/NHS ratio) ([2]; Serum No. 11, Non-Transmission Group): - (specific OD450 or cpm of sera sample binding to peptide divided by the specific OD450 or cpm of NHS sample binding to peptide, which value is less than 2)
Binding of maternal HIV+ serum to peptide (sera/NHS ratio) ([2]; Serum No. 12, Non-Transmission Group): - (specific OD450 or cpm of sera sample binding to peptide divided by the specific OD450 or cpm of NHS sample binding to peptide, which value is less than 2)
Binding of maternal HIV+ serum to peptide (sera/NHS ratio) ([2]; Serum No. 13, Transmission Group): - (specific OD450 or cpm of sera sample binding to peptide divided by the specific OD450 or cpm of NHS sample binding to peptide, which value is less than 2)
Binding of maternal HIV+ serum to peptide (sera/NHS ratio) ([2]; Serum No. 14, Transmission Group): ++ (which value is greater than 3)
Binding of maternal HIV+ serum to peptide (sera/NHS ratio) ([2]; Serum No. 15, Transmission Group): ++ (which value is greater than 3)
Binding of maternal HIV+ serum to peptide (sera/NHS ratio) ([2]; Serum No. 16, Non-Transmission Group): ++ (which value is greater than 3)
Binding of maternal HIV+ serum to peptide (sera/NHS ratio) ([2]; Serum No. 17, Non-Transmission Group): ++ (which value is greater than 3)
Binding of maternal HIV+ serum to peptide (sera/NHS ratio) ([2]; Serum No. 18, Non-Transmission Group): ++ (which value is greater than 3)
Binding of maternal HIV+ serum to peptide (sera/NHS ratio) ([2]; Serum No. 19, Transmission Group): - (specific OD450 or cpm of sera sample binding to peptide divided by the specific OD450 or cpm of NHS sample binding to peptide, which value is less than 2)
Binding of maternal HIV+ serum to peptide (sera/NHS ratio) ([2]; Serum No. 20, Non-Transmission Group): - (specific OD450 or cpm of sera sample binding to peptide divided by the specific OD450 or cpm of NHS sample binding to peptide, which value is less than 2)
Percent of the maternal serum samples that bound to the peptide ([2]; all 20 samples): 35%
Binding / reactivity of maternal sera to peptide (in words) [1]: recognized by the transmission group
